This is an account of results in patent US8937063B2 (Trustees of Tufts College, priority 2010, dated 2015).

The nature of data set [1]: ARI-001 plasma, liver and adipose concentrations correlated with lipid parameters. It is filed as in vivo, hamster. Particulars: 18-day study; p<0.01 for each pair. As for the experimental part: Plasma from the 19 hamsters dosed with ARI-001 in the above described 18-day study was analyzed for concentrations of ARI-001. Concentrations were determined for these samples, which were collected 24 hours after the final dose was administered. Briefly, plasma drug concentrations for the non-GLP pharmacokinetic experiments were determined by LC-MS using an Applied Biosystems 4000Qtrap spectrometer with electrospray ionization. Samples were prepared for analysis by precipitation of plasma proteins with cold methanol. HPLC of the samples was done with an Agilent Eclipse C18 column and a methanol/water gradient containing 0.1% formic acid and 5 mM ammonium acetate. ARI-001 was detected using multiple reaction monitoring (MRM) in the positive ion mode. For quantitation, a standard curve was measured by addition of known amounts of ARI-001 to plasma from untreated animals and preparing in a manner identical to the samples from treated animals. All plasma samples were spiked with 10 ng/mL of isotope-enriched ARI-001 which served as an internal standard for the LC-MS measurements. […] Pearson r values were determined using all data points, as was the two-tailed P-value for the data set. […]
FIG. 8 graphs the correlation between concentrations of ARI-001 in plasma versus liver (left), and in plasma versus adipose (right). […] Pearson r was determined using all data points illustrated. […]

The nature of data set [2]: Storage stability of ARI-001 at 50° C., LC-MS. It is filed as physicochemical. As to conditions: unregulated humidity. The protocol:
ARI-001 was synthesized as described above. Purity was determined independently before use in experiments by examination via liquid chromatography-mass spectroscopy (LC-MS). A sample of material was dissolved in water/acetonitrile and injected onto a Discovery C-18 reverse phase column. The mobile phase began as 2%:98% acetonitrile:water, which was held for three minutes, after which a linear gradient was started that ran over 6 minutes, increasing the percent of acetonitrile until a final ratio of 98%:2% acetonitrile:water was reached. This final ratio was held for 3 minutes. The major peak was identified as ARI-001.
Stability was determined by storing ARI-001 under 50° C. with no specified humidity requirement. At various time points over the course of 3 months (90 days), a small sample (<5 mg) of ARI-001 was collected for analysis using LC-MS under the same conditions as used for purity determination (vide supra).

The structures appear in SMILES notation.

With `O=C(O)c1ccc(CCN2CCOCC2)nc1` [ARI-001], the “correlations of plasma versus liver and plasma versus adipose concentrations” value in data set [1] is recorded as “highly statistically significant”. Moreover, the “purity remaining on storage” value in data set [2] (65 days) was 98.9%; in data set [2] (90 days), 95.9%.
